# Results taken from PubChem BioAssay AID1645862 (Buhrlage Lab, Dana-Farber Cancer Institute and Novartis …, 2021).
# Calls of active or inactive are those of the source. How the calls were made is not given here.
# Target: Ubiquitin carboxyl-terminal hydrolase 8 (Homo sapiens) (UniProt P40818)
# Experiment: Ubiquitin-specific protease 8 inhibitors, concentration-effect, biochemical, validation of initial actives (AID 1645862);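 further: potency reflects inhibition of USP8 cleavage of a ubiquitin rhodamine substrate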
# Details: recombinant USP8 deubiquitinase activity assay
# Chain of Ubiquitin carboxyl-terminal hydrolase 8 (Homo sapiens) (P40818 whole entry, looked up): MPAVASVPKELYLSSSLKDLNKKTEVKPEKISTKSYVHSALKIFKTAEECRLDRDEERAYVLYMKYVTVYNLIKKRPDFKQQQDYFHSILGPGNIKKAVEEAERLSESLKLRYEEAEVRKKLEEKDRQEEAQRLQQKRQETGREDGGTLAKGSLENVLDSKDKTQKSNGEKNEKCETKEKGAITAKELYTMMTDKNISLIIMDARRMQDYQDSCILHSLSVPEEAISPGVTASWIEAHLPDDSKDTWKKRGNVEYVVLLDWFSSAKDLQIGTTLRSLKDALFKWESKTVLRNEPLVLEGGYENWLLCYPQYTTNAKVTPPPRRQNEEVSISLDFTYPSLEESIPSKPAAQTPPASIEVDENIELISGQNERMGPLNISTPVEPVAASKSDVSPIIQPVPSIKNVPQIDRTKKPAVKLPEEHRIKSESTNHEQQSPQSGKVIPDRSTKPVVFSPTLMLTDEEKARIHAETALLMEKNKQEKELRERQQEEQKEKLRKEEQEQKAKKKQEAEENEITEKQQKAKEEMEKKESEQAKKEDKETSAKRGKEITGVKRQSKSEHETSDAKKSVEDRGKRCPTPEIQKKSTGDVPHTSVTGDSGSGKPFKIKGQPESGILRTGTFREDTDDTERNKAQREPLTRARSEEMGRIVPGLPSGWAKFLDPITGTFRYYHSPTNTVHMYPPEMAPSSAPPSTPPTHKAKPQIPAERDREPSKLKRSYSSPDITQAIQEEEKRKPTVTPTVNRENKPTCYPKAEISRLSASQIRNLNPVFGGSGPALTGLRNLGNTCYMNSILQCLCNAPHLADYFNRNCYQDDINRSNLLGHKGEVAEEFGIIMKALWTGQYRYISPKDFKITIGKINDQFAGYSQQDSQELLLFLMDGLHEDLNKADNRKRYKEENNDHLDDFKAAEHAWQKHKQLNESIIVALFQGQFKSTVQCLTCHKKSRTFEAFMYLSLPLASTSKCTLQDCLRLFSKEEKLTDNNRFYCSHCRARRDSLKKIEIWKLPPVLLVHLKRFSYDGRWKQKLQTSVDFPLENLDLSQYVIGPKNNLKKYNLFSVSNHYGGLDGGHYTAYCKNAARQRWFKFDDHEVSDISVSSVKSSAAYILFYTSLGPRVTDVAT
row,IC50,Structure (SMILES)
1,18.7 µM,Cc1ccc(NC(=O)Cc2nnc3c(-c4nc(C5CC5)no4)cccn23)cc1
2,> 40 µM (inactive),COC(=O)c1ccc2c(=O)n(CCCCCC(=O)NCc3cccc(Cl)c3)c(=O)[nH]c2c1
3,> 40 µM (inactive),COc1ccc(/C=C/C(=O)Nc2ccc(Cl)c(-c3nc4ncccc4o3)c2)cc1
4,> 40 µM (inactive),Cc1cccc(NC(=O)CSc2nnc(NC(=O)c3ccc4ccccc4c3)s2)c1
5,> 40 µM (inactive),CN1C(=O)COc2cc(-c3noc(C(=O)NCc4ccc(F)cc4)n3)ccc21
6,> 40 µM (inactive),Cn1cc(NC(=O)Nc2cccc3ccccc23)c2ccccc21
7,> 40 µM (inactive),CCc1nc(SCC(=O)Nc2ccc(Cl)c(Cl)c2)c2oc3ccccc3c2n1
8,> 40 µM (inactive),COc1ccc(CNC(=O)CN2C(=O)CC(c3ccccc3)=Nc3ccccc32)cc1
9,> 40 µM (inactive),O=c1[nH]c(C2CCN(S(=O)(=O)c3ccc(S(=O)(=O)NC4CCCCC4)cc3)CC2)nc2c1nnn2Cc1ccc(F)cc1
10,> 40 µM (inactive),CC(NC(=O)c1ccccc1)c1nc2ccccc2n1CC(=O)Nc1ccc(F)cc1 (stereo unspecified)
11,> 40 µM (inactive),Cc1ccc(-c2nnc3ccc(SCC(=O)N4CCCc5ccccc54)nn23)cc1
12,> 40 µM (inactive),COc1ccc(CC(=O)Nc2ccccc2-c2nc3ccccc3[nH]2)cc1OC
13,19.9 µM,COc1cccc2cc(C(=O)Nc3nc(-c4ccncc4)cs3)oc12
14,> 40 µM (inactive),CCOc1cc2c(cc1OCC)C(c1cc3c(cc1Br)OCO3)NCC2 (stereo unspecified)
15,6.52 µM,O=C(NC1(O)C(=O)c2ccccc2C1=O)c1cccc2c1-c1ccccc1C2=O
16,> 40 µM (inactive),COc1c2nc3ccccc3oc-2cc(=O)c1OC
17,> 40 µM (inactive),O=C(c1cnc2ccccc2n1)N1CCC(S(=O)(=O)c2ccc(-c3ccco3)cc2)CC1
18,> 40 µM (inactive),O=C(Cn1c(COc2ccccc2)nc2ccccc21)Nc1cc(Cl)ccc1Cl

row,IC50,Structure (SMILES)
1,> 40 µM (inactive),CCCCCC(=O)C(CCCC)c1oc(=O)c(CCCC)c(O)c1CCCC (stereo unspecified)
2,> 40 µM (inactive),CCOc1ccc(C2/C(=C(\O)c3ccccc3)C(=O)C(=O)N2c2nc3ccc(F)cc3s2)cc1 (stereo unspecified)
3,14.5 µM,C=C/C(C)=C/[C@@]1(C)SC(=O)C(C)=C1O
4,> 40 µM (inactive),O=C(NCCc1nc2ccccc2n1Cc1ccccc1F)c1ccc(Cl)cc1
5,> 40 µM (inactive),O=C(Nc1ccc2snnc2c1)Nc1ccc(F)cc1F
6,> 40 µM (inactive),Cc1cc(=O)[nH]c(SCC(=O)c2cc(C)n(CCC3=CCCCC3)c2C)c1C#N
7,> 40 µM (inactive),CCOc1ccc(NS(=O)(=O)c2ccc(NC(=O)Nc3ccccc3)cc2)cc1
8,> 40 µM (inactive),O=C(Cn1c(=O)c2ccccc2n(CC(=O)Nc2cccc(F)c2)c1=O)NCCc1ccccc1
9,> 40 µM (inactive),N#Cc1ccccc1NC(=O)c1cc2c(s1)-c1ccccc1S(=O)(=O)C2
10,> 40 µM (inactive),O=C(COc1ccc(C2CCCCC2)cc1)Nc1ccc(-c2nn3cnnc3s2)cc1
11,> 40 µM (inactive),COCCCNC(=O)c1ccc(Cn2c(=O)c3ccccc3n(CC(=O)Nc3ccc4c(c3)OCCO4)c2=O)cc1
12,18 µM,COc1ccc(-c2nc(SCC(=O)Oc3c(C)cccc3C)n3[nH]c(=O)cc3n2)cc1
13,> 40 µM (inactive),Cc1ccc(NC(=O)CSc2ccc(NC(=O)c3ccc(C(=O)O)cc3C(=O)O)cc2)c(C)c1
14,> 40 µM (inactive),c1cncc(-c2cnc3sc(NCc4ccc5c(c4)OCO5)nn23)c1
15,> 40 µM (inactive),O=C(c1ccc(Cl)cc1)N(c1ccccn1)C1CCCCC1
16,> 40 µM (inactive),COc1cc(=O)c(C(=O)Nc2ccc(C#N)cc2)nn1-c1cccc(F)c1
17,> 40 µM (inactive),O=C(O)c1nccnc1C(=O)N1CCc2ccccc2C1

row,Structure (SMILES),IC50
1,CC(C)=CCOC(C)(C)[C@H]1OC2CC[C@@]3(C)C(CCC4Cc5c([nH]c6ccccc56)[C@@]43C)C23OC3[C@@H]1O (stereo partly specified),35 µM
